Results taken from paper PMC7377239, “Cardiovascular Effects of Polychlorinated Biphenyls and Their Major Metabolites” (Environmental Health Perspectives, 2020).
Like-named read-outs stand apart in the source and are kept apart here.

Legend:
[1] = system: iCell endothelial cells (human iPSC-derived ECs); assay: High-content imaging cytotoxicity in iCell endothelial cells, 24 h; assay type: cell-based; conditions: Homo sapiens, Endothelial cell, iPSC-EC, 24 hr; for viability at 0.1 µM / activity at 0.1 µM: 0.10 µM; for minimal effective concentration: top concentration 100.00 µM
Summary of the method: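 Readouts were vehicle-normalised and fitted to a four-parameter logistic model. POD was set at one SD beyond 0.5% DMSO control means, and 100 µM was assigned when no response was seen. Cells were monolayers of iCell endothelial cells imaged after 24 h compound exposure using nuclear, mitochondrial and calcein dyes.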

HUVECs = assay: High-content imaging cytotoxicity in HUVECs, 24 h; assay type: cell-based, human; conditions: Homo sapiens, HUVEC, 24 h, HUVECs; for viability at 0.01 µM / activity at 0.01 µM / viability at 0.1 µM / activity at 0.1 µM / viability at 1 µM / activity at 1 µM / viability at 10 µM / activity at 10 µM / viability at 100 µM / activity at 100 µM: 0.00 µM = 100.00; for viability at 0.1 µM / activity at 0.1 µM: 0.10 µM; for minimal effective concentration: top concentration 100.00 µM
Summary of the method: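 Point-of-departure values come from four-parameter logistic fits of vehicle-normalized (0.5% DMSO) imaging readouts, cutoff one SD of vehicle means, 100μM where no concentration–response. Cells: HUVEC monolayers, passages 1–5, treated 24 h at 37°C, 5% CO2, then Hoechst 33342/MitoTracker Orange/calcein AM stained, imaged at 10×.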

[2] = 0.00 µM control = 100.00, read-out: endo.cyto.24hr
[3] = 0.00 µM control = 100.00, read-out: endo.mito.24hr
[4] = 0.00 µM control = 100.00, read-out: endo.mitoint.24hr
[5] = 0.00 µM control = 100.00, read-out: endo.nma.24hr
[6] = 0.00 µM control = 100.00, read-out: endo.tc.24hrs
[7] = 24 hr, read-out: huvec.cyto.24hr
[8] = 24 hr, read-out: huvec.mito.24hr
[9] = 24 hr, read-out: huvec.mitoint.24hr
[10] = 24 hr, read-out: huvec.nma.24hr
[11] = 24 hrs, read-out: huvec.tc.24hrs

Molecule `Clc1cccc(-c2cccc(Cl)c2)c1` [PCB11] has a viability at 0.01 µM [1, 2] of 99.3%, an activity at 0.01 µM [1, 3] of 99.6% and an activity at 0.01 µM [1, 4] of 100%. It also gave an activity at 0.01 µM [1, 5] of 101%, a viability at 0.01 µM [1, 6] of 99.3% and a viability at 0.1 µM [1, 2] of 95.3%. The activity at 0.1 µM [1, 3] was 96%, the activity at 0.1 µM [1, 4] was 97.8% and the activity at 0.1 µM [1, 5] was 102%. It also gave a viability at 0.1 µM [1, 6] of 95.3%, a viability at 1 µM [1, 2] of 96.6% and an activity at 1 µM [1, 3] of 97%. It also gave an activity at 1 µM [1, 4] of 96.1%, an activity at 1 µM [1, 5] of 99.7% and a viability at 1 µM [1, 6] of 96.6%. The viability at 10 µM [1, 2] was 99%, the activity at 10 µM [1, 3] was 99.4% and the activity at 10 µM [1, 4] was 107%. It also gave an activity at 10 µM [1, 5] of 100%, a viability at 10 µM [1, 6] of 99% and a viability at 100 µM [1, 2] of 104%. It also gave an activity at 100 µM [1, 3] of 105%, an activity at 100 µM [1, 4] of 92.6% and an activity at 100 µM [1, 5] of 100%. For the same molecule, the viability at 100 µM [1, 6] was 104%, the minimal effective concentration ([1]; read-out: endo.cyto.24hr POD) was 100 µM and the minimal effective concentration ([1]; read-out: endo.mito.24hr POD) was 100 µM. The minimal effective concentration ([1]; read-out: endo.mitoint.24hr POD) was 100 µM, the minimal effective concentration ([1]; read-out: endo.nma.24hr POD) was 100 µM and the minimal effective concentration ([1]; read-out: endo.tc.24hrs POD) was 100 µM. For the same molecule, the viability at 0.01 µM (HUVECs; [7]) was 91.9%, the activity at 0.01 µM (HUVECs; [8]) was 90.9% and the activity at 0.01 µM (HUVECs; [9]) was 90.3%. For the same molecule, the activity at 0.01 µM (HUVECs; [10]) was 99.1%, the viability at 0.1 µM (HUVECs; [7]) was 99.2% and the activity at 0.1 µM (HUVECs; [8]) was 97.8%. It also gave an activity at 0.1 µM (HUVECs; [9]) of 99.8%, an activity at 0.1 µM (HUVECs; [10]) of 99.1% and a viability at 1 µM (HUVECs; [7]) of 96.6%. For the same molecule, the activity at 1 µM (HUVECs; [8]) was 96.2%, the activity at 1 µM (HUVECs; [9]) was 95.2% and the activity at 1 µM (HUVECs; [10]) was 98.1%. It also gave a viability at 10 µM (HUVECs; [7]) of 95%, an activity at 10 µM (HUVECs; [8]) of 93.9% and an activity at 10 µM (HUVECs; [9]) of 89.1%. For the same molecule, the activity at 10 µM (HUVECs; [10]) was 96.6%, the viability at 100 µM (HUVECs; [7]) was 44.7% and the activity at 100 µM (HUVECs; [8]) was 22.1%. For the same molecule, the activity at 100 µM (HUVECs; [9]) was 15.7%, the activity at 100 µM (HUVECs; [10]) was 54.9% and the minimal effective concentration (HUVECs; 24 hr, read-out: huvec.cyto.24hr POD) was 11.2 µM. It also gave a minimal effective concentration (HUVECs; 24 hr, read-out: huvec.mito.24hr POD) of 9.68 µM, a minimal effective concentration (HUVECs; 24 hr, read-out: huvec.mitoint.24hr POD) of 7.62 µM and a minimal effective concentration (HUVECs; 24 hr, read-out: huvec.nma.24hr POD) of 9.3 µM. It also gave a viability at 0.01 µM (HUVECs; [11]) of 91.9%, a viability at 0.1 µM (HUVECs; [11]) of 99.2% and a viability at 1 µM (HUVECs; [11]) of 96.6%. The viability at 10 µM (HUVECs; [11]) was 95%, the viability at 100 µM (HUVECs; [11]) was 44.9% and the minimal effective concentration (HUVECs; 24 hrs, read-out: huvec.tc.24hrs POD) was 11.2 µM.
